The values that follow come from US9670211B2, “Aza-oxo-indoles for the treatment and prophylaxis of respiratory syncytial virus infection” (Hoffmann-La Roche Inc., priority 2013, dated 2017).

The subject of the assay is RSV Long strain. Description: Viral Cytopathic Effect (CPE) Assay. The assay is classed as cell-based. The following applies: human respiratory syncytial virus, 144 h; RSV Long strain (ATCC), cell viability after 6 days by Cell Counting kit-8. As to the method:
Viral Cytopathic Effect (CPE) Assay
To measure anti-RSV activity of compounds, 96-well plates are seeded with 6×10^3 cells per well in Dulbecco's modified Eagle's medium (DMEM) containing 10% fetal bovine serum (FBS). Cells are infected the next day with sufficient RSV Long strain (ATCC) to produce an approximately 80-90% cytopathic effect after 6 days, in the presence of serial half-log diluted compound in a total volume of 200 μL per well. The viability of cells is assessed after 6 days using Cell Counting kit-8 (Dojindo Molecular Technologies). The absorbance at 450 nm and referenced at 630 nm is measured to determine 50% effective concentration (EC50).
`O=C1N(Cc2nc3cc(Cl)ccc3n2C2CCOCC2)c2cnccc2C12CC2` [Example 2-6, 1′-{[5-Chloro-1-(tetrahydro-2H-pyran-4-yl)-1H-benzimidazol-2-yl]methyl}spiro[cyclopropane-1,3′-pyrrolo[2,3-c]pyridin]-2′(1′H)-one] registered an EC50 of 23 nM.
On to `CC(C)(C)OC(=O)N1CCC(n2c(CN3C(=O)C4(CC4)c4ccncc43)nc3cc(Cl)ccc32)C1` (stereo not shown) [Example 2-15, tert-Butyl 3-{5-chloro-2-[(2′-oxospiro[cyclopropane-1,3′-pyrrolo[2,3-c]pyridin]-1′(2′H)-yl)methyl]-1H-benzimidazol-1-yl}pyrrolidine-1-carboxylate], for which it took 31 nM to reach a half-maximal effect (EC50). This EC50 and that of the compound before are within 1.5-fold of each other.
Consider `CS(=O)(=O)[C@H]1C[C@@H](n2c(CN3C(=O)C4(CC4)c4ccncc43)nc3cc(Cl)ccc32)C1` [Example 1-1, 1′-({5-Chloro-1-[cis-3-(methylsulfonyl)cyclobutyl]-1H-benzimidazol-2-yl}methyl)spiro[cyclopropane-1,3′-pyrrolo[2,3-c]pyridin]-2′(1′H)-one], for which the EC50 stood at 10 nM.
With `O=C1N(Cc2nc3cc(Cl)ccc3n2C2CCCC2)c2cnccc2C12CC2` [Example 2-3, 1′-[(5-Chloro-1-cyclopentyl-1H-benzimidazol-2-yl)methyl]spiro[cyclopropane-1,3′-pyrrolo[2,3-c]pyridin]-2′(1′H)-one], the EC50 was 32 nM. Compared with the last compound, the EC50 is about 3.2-fold higher.
As for `CN1CC(n2c(CN3C(=O)C4(CC4)c4ccncc43)nc3cc(Cl)ccc32)CC1=O` (stereo not shown) [Example 8-1, 1′-{[5-Chloro-1-(1-methyl-5-oxopyrrolidin-3-yl)-1H-benzimidazol-2-yl]methyl}spiro[cyclopropane-1,3′-pyrrolo[2,3-c]pyridin]-2′(1′H)-one], the EC50 is 6 nM.
For `CC1(C)C(=O)N(Cc2nc3cc(Cl)ccc3n2C2CS(=O)(=O)C2)c2cnccc21` [Example 4-2, 1-{[5-Chloro-1-(1,1-dioxidothietan-3-yl)-1H-benzimidazol-2-yl]methyl}-3,3-dimethyl-1,3-dihydro-2H-pyrrolo[2,3-c]pyridin-2-one] the value was 95 nM; for `CS(=O)(=O)N1CC(n2c(CN3C(=O)C4(CC4)c4ccncc43)nc3cc(Cl)ccc32)C1` [Example 12, 1′-({5-Chloro-1-[1-(methylsulfonyl)azetidin-3-yl]-1H-benzimidazol-2-yl}methyl)spiro[cyclopropane-1,3′-pyrrolo[2,3-c]pyridin]-2′(1′H)-one], 1.8 nM.
In turn, `O=C1N(Cc2nc3cc(Cl)cc(F)c3n2[C@@H]2CCS(=O)(=O)C2)c2cnccc2C12CC2` [Example 9-2, 1′-({5-Chloro-1-[(3R)-1,1-dioxidotetrahydrothiophen-3-yl]-7-fluoro-1H-benzimidazol-2-yl}methyl)spiro[cyclopropane-1,3′-pyrrolo[2,3-c]pyridin]-2′(1′H)-one] registered an EC50 of 0.7 nM. This EC50 is about 2.6-fold lower than that of the compound before.
`CCC1(CC)C(=O)N(Cc2nc3cc(Cl)ccc3n2C2CS(=O)(=O)C2)c2cnccc21` [Example 4-3, 1-{[5-Chloro-1-(1,1-dioxidothietan-3-yl)-1H-benzimidazol-2-yl]methyl}-3,3-diethyl-1,3-dihydro-2H-pyrrolo[2,3-c]pyridin-2-one] showed an EC50 of 207 nM.
On to `O=C1N(Cc2nc3cc(Cl)ccc3n2C2CCC(F)(F)C2)c2cnccc2C12CC2` (stereo not shown) [Example 2-11, 1′-{[5-Chloro-1-(3,3-difluorocyclopentyl)-1H-benzimidazol-2-yl]methyl}spiro[cyclopropane-1,3′-pyrrolo[2,3-c]pyridin]-2′(1′H)-one], for which a half-maximal effect (EC50) was put at 17 nM.
`O=C1N(Cc2nc3cc(Cl)ccc3n2C2CNC2)c2cnccc2C12CC2` [Example 10-2, 1′-{[1-(Azetidin-3-yl)-5-chloro-1H-benzimidazol-2-yl]methyl}spiro[cyclopropane-1,3′-pyrrolo[2,3-c]pyridin]-2′(1′H)-one]: the EC50 came to 138 nM. This EC50 is about 8.1-fold higher than that of the compound before.
The result for `O=C1N(Cc2nc3cc(Cl)ccc3n2C2CNC3(COC3)C2)c2cnccc2C12CC2` (stereo not shown) [Example 16, 1′-{[5-Chloro-1-(2-oxa-5-azaspiro[3.4]oct-7-yl)-1H-benzimidazol-2-yl]methyl}spiro[cyclopropane-1,3′-pyrrolo[2,3-c]pyridin]-2′(1′H)-one] reads 2.2 nM; that for `CCN1CC(n2c(CN3C(=O)C4(CC4)c4ccncc43)nc3cc(Cl)ccc32)CC1=O` (stereo not shown) [Example 8-2, 1′-{[5-Chloro-1-(1-ethyl-5-oxopyrrolidin-3-yl)-1H-benzimidazol-2-yl]methyl}spiro[cyclopropane-1,3′-pyrrolo[2,3-c]pyridin]-2′(1′H)-one], 1.1 nM; that for `O=C1NCCC1n1c(CN2C(=O)C3(CC3)c3ccncc32)nc2cc(Cl)ccc21` (stereo not shown) [Example 2-9, 1′-{[5-Chloro-1-(2-oxopyrrolidin-3-yl)-1H-benzimidazol-2-yl]methyl}spiro[cyclopropane-1,3′-pyrrolo[2,3-c]pyridin]-2′(1′H)-one], 164 nM.
Regarding `O=C1N(Cc2nc3cc(Cl)ccc3n2[C@H]2C[C@@H](O)C2)c2cnccc2C12CC2` [Example 14-1, 1′-{[5-Chloro-1-(cis-3-hydroxycyclobutyl)-1H-benzimidazol-2-yl]methyl}spiro[cyclopropane-1,3′-pyrrolo[2,3-c]pyridin]-2′(1′H)-one], the EC50 was 7 nM.
Compound `C[C@]1(O)C[C@H](n2c(CN3C(=O)C4(CC4)c4ccncc43)nc3cc(Cl)ccc32)C1` [Example 2-17, 1′-{[5-Chloro-1-(trans-3-hydroxy-3-methylcyclobutyl)-1H-benzimidazol-2-yl]methyl}spiro[cyclopropane-1,3′-pyrrolo[2,3-c]pyridin]-2′(1′H)-one] displayed an EC50 of 5 nM.
The compound `O=C1N(Cc2nc3cc(Cl)ccc3n2C2COC2)c2cnccc2C12CC2` [Example 2-4, 1′-{[5-Chloro-1-(oxetan-3-yl)-1H-benzimidazol-2-yl]methyl}spiro[cyclopropane-1,3′-pyrrolo[2,3-c]pyridin]-2′(1′H)-one] had an EC50 of 70 nM.
The result for `CC(C)C(=O)N1CC[C@@H](n2c(CN3C(=O)C4(CC4)c4ccncc43)nc3cc(Cl)ccc32)C1` [Example 11, 1′-({5-Chloro-1-[(3R)-1-(2-methylpropanoyl)pyrrolidin-3-yl]-1H-benzimidazol-2-yl}methyl)spiro[cyclopropane-1,3′-pyrrolo[2,3-c]pyridin]-2′(1′H)-one] reads 3 nM.
On to `O=C1CC(n2c(CN3C(=O)C4(CC4)c4ccncc43)nc3cc(Cl)ccc32)CN1` (stereo not shown) [Example 7-2, 1′-{[5-Chloro-1-(5-oxopyrrolidin-3-yl)-1H-benzimidazol-2-yl]methyl}spiro[cyclopropane-1,3′-pyrrolo[2,3-c]pyridin]-2′(1′H)-one], for which the EC50 stood at 9 nM.
In turn, `O=C1N(Cc2nc3cc(Cl)ccc3n2C2CCNCC2)c2cnccc2C12CC2` [Example 10-1, 1′-{[5-Chloro-1-(piperidin-4-yl)-1H-benzimidazol-2-yl]methyl}spiro[cyclopropane-1,3′-pyrrolo[2,3-c]pyridin]-2′(1′H)-one] returned an EC50 of 78 nM. This EC50 lies about 8.7-fold higher than the previous one.
For `O=C1N(Cc2nc3cc(Cl)cnc3n2C2CCS(=O)(=O)C2)c2cnccc2C12CC2` (stereo not shown) [Example 2-13, 1′-{[6-Chloro-3-(1,1-dioxidotetrahydrothiophen-3-yl)-3H-imidazo[4,5-b]pyridin-2-yl]methyl}spiro[cyclopropane-1,3′-pyrrolo[2,3-c]pyridin]-2′(1′H)-one] the value was 15 nM; for `O=C1N(Cc2nc3cc(Cl)ccc3n2C2CCS(=O)(=O)C2)c2cnccc2C12CC2` (stereo not shown) [Example 3-1, 1′-{[5-Chloro-1-(1,1-dioxidotetrahydrothiophen-3-yl)-1H-benzimidazol-2-yl]methyl}spiro[cyclopropane-1,3′-pyrrolo[2,3-c]pyridin]-2′(1′H)-one], 6 nM.
Compound `O=C1N(Cc2nc3cc(Cl)ccc3n2C2CCOC2)c2cnccc2C12CC2` (stereo not shown) [Example 2-14, 1′-{[5-Chloro-1-(tetrahydrofuran-3-yl)-1H-benzimidazol-2-yl]methyl}spiro[cyclopropane-1,3′-pyrrolo[2,3-c]pyridin]-2′(1′H)-one] registered an EC50 of 6 nM.
On to `O=C1N(Cc2nc3cc(Cl)ccc3n2C2CCC(O)C2)c2cnccc2C12CC2` (stereo not shown) [Example 2-8, 1′-{[5-Chloro-1-(3-hydroxycyclopentyl)-1H-benzimidazol-2-yl]methyl}spiro[cyclopropane-1,3′-pyrrolo[2,3-c]pyridin]-2′(1′H)-one], for which the concentration giving a half-maximal response (EC50) turned out to be 11 nM.
`CS(=O)(=O)[C@H]1C[C@H](n2c(CN3C(=O)C4(CC4)c4ccncc43)nc3cc(Cl)ccc32)C1` [Example 1-2, 1′-({5-Chloro-1-[trans-3-(methylsulfonyl)cyclobutyl]-1H-benzimidazol-2-yl}methyl)spiro[cyclopropane-1,3′-pyrrolo[2,3-c]pyridin]-2′(1′H)-one]: the EC50 came to 6 nM.
`O=C1N(Cc2nc3cc(Cl)ccc3n2[C@H]2CCS(=O)(=O)C2)c2cnccc2C12CC2` [Example 3-2, 1′-({5-Chloro-1-[(3S)-1,1-dioxidotetrahydrothiophen-3-yl]-1H-benzimidazol-2-yl}methyl)spiro[cyclopropane-1,3′-pyrrolo[2,3-c]pyridin]-2′(1′H)-one]: the EC50 came to 10 nM.
For `CC1(C)[C@H](n2c(CN3C(=O)C4(CC4)c4ccncc43)nc3cc(Cl)ccc32)CCS1(=O)=O` (stereo in doubt) [Example 13, 1′-{[5-Chloro-1-(2,2-dimethyl-1,1-dioxidotetrahydrothiophen-3-yl)-1H-benzimidazol-2-yl]methyl}spiro[cyclopropane-1,3′-pyrrolo[2,3-c]pyridin]-2′(1′H)-one], a half-maximal effect (EC50) was put at 397 nM.
Compound `O=C1CCC(n2c(CN3C(=O)C4(CC4)c4ccncc43)nc3cc(Cl)ccc32)CN1` (stereo not shown) [Example 7-1, 1′-{[5-Chloro-1-(6-oxopiperidin-3-yl)-1H-benzimidazol-2-yl]methyl}spiro[cyclopropane-1,3′-pyrrolo[2,3-c]pyridin]-2′(1′H)-one] showed an EC50 of 2 nM.
